The target in one experiment is T1, hACC2 (Homo sapiens, UniProt O00763).
T1 construct: delete amino acids 1-148 and add Met-Gly in front of Lys149 in the final product; His tag (C); made in house; host or cells: baculovirus, Sf9 insect cells
As to the kind of experiment: [14C]bicarbonate incorporation assay, overall ACC activity. It is filed as biochemical. Conditions: recombinant hACC2, overall ACC activity. On the procedure:
(§1) In vitro IC50 values of human ACC were determined using recombinant enzyme produced by standard procedures. For example, full-length cDNAs for both the human isoforms (hACC1 and hACC2) were each cloned and expressed as a recombinant protein using a baculovirus system. Double stranded cDNA from human fetal liver (Quick-Clone cDNA, cat. #7171-1) was purchased from BD/Clontech (Mt. View, Calif.). PCR primers were designed for full-length hACC1 and hACC2 using GenBank submissions AY237919 and AJ575592, respectively. The Advantage GC 2 PCR kit (BD/Clontech) was used for amplification. The PCR products (about 7 Kb) were TOPO-cloned into the pCR4Blunt vector (Invitrogen, Carlsbad, Calif.), and 6 clones of each gene were isolated. […] Full length versions of the two cDNAs corresponding to their respective Genbank sequences were assembled in pBluescript SK+ (Stratagene, La Jolla, Calif.) by combining error-free fragments from the PCR clones. The resulting hACC1 clone, designated pCS35, has six silent nucleotide differences compared to Genbank accession AY237919. The final hACC2 clone, designated pCS36, has ten silent nucleotide differences compared to Genbank accession AJ575592. Primers were designed to PCR amplify the cDNAs along with the in-frame 3′-his tag sequences from the pET vector and TOPO-cloned the resulting products into the Gateway® entry vector pENTR/D-TOPO. The ACC2 primers were designed to delete amino acids 1-148 and add Met-Gly in front of Lys149 in the final product. The resulting entry clones were transferred to BaculoDirect™ linear DNA (Invitrogen corp.) using the Gateway® LR recombination reaction. The recombinant baculovirus DNA was transfected into insect cells and viral amplification was performed according to the manufacturer's protocols. For protein expression sf9 cells were infected with a P3 viral stock in the presence of 50 uM biotin. The cells were harvested after 48-72 hr, lysed by sonication, and the resulting extract was clarified by centrifugation. ACC in the crude extract was concentrated by ammonium sulfate precipitation (40% w/v) and purified by Ni^2+-NTA chromatography (Novagen) followed by anion exchange chromatography on a UNO-Q column (BioRad).
(§2) Overall ACC activity in the hACC preparations is measured by following incorporation of [^14C]bicarbonate into […] essentially as described (Thumpy and Wakil, J Biol Chem 260, 6318-6323 (1985). Briefly, the reaction mixture (50 μL) contains: 50 mM Hepes (pH7.4), 20 mM K-Citrate, 20 mM Mg-Acetate 1.5 mM MgSO4, 2 mM DTT, 2 mM acetyl-CoA, 12 mM NaHCO3, 0.2 mM NaH^14CO3 (˜50 mCi/mmol), 0.01% (v/v) Triton X-100, 0.75 mg/mL BSA, 1% (v/v) DMSO (with or without inhibitor), and 0.3 μg (hACC1) or 0.15 μg (hACC2) enzyme. Reactions are initiated by the addition of ATP to a final concentration 2 mM. After 10 minutes at 37° C., the reaction is stopped by the addition of 2N HCl (50 μL). The samples are evaporated in a hood overnight, resuspended in H2O (200 μL), and incorporated label is quantified by scintillation counting in scintillation cocktail (3 mL). Inhibition data are fit to dose-response curves and IC50 values are reported (i.e. the concentration of inhibitor that gives 50% inhibition).

A further experiment deals with T2, hACC1 (Homo sapiens, UniProt Q13085).
T2 construct: PCR primers were designed for full-length hACC1 and hACC2 using GenBank submissions AY237919 and AJ575592, respectively; His tag (C); made in house; host or cells: baculovirus, Sf9 insect cells
Described as above. It is filed as biochemical. The note with it: recombinant hACC1, overall ACC activity. On the procedure: as §1, §2

The test system of experiment [1] is HCT-116 human colon cancer cells. As to the kind of experiment: MTT Cell Proliferation Assay. It is filed as cell-based. The note with it: 72 hours, read-out: Percent of Control HCT-116. On the procedure:
(§3) The anti-proliferative activity of test compounds against human tumor cell lines is evaluated in vitro using the ATCC's MTT Cell Proliferation Assay (Catalog No. 30-100K). Cell lines are grown using media, serum, and culture conditions recommended by the ATCC. Stock cultures are allowed to grow to 70-80% confluence. Cells are seeded into 96-well culture plates at a predetermined density on day 0 in complete medium (0.1 mL). Plates are placed in a humidified incubator at 37° C. with 5% CO2 and 95% HEPA filtered room air for 24 hours. At this point compound (0.1 mL of 2× stock (in media)) is added to the indicated wells and the plates are returned to the incubator for 72 hours. Cell proliferation is measured by addition of MTT reagent to each well and incubated for an additional 4 hours, followed by addition of cell lysis/MTT solublization reagent and incubating overnight. […] Results are expressed as percent of control cells versus compound concentration. Compounds of the present invention, and salts thereof, were evaluated for anti-proliferative activity as described above.

In experiment [2] the test system is A2780 human ovary cancer cells. As to the kind of experiment: MTT Cell Proliferation Assay. It is filed as cell-based. Conditions: 72 hours, read-out: Percent of Control A2780. On the procedure: as §3
For experiment [3], the system named is PC-3 human prostate cancer cells. As to the kind of experiment: MTT Cell Proliferation Assay. It is filed as cell-based. Conditions: 72 hours, read-out: Percent of Control PC-3. On the procedure: as §3
Experiment [4] relates to MDA-MB-231 human breast cancer cells. As to the kind of experiment: MTT Cell Proliferation Assay. It is filed as cell-based. Conditions: 72 hours, read-out: Percent of Control MDA-MB-231. On the procedure: as §3

T1 sequence (O00763 149-2458 limits assumed): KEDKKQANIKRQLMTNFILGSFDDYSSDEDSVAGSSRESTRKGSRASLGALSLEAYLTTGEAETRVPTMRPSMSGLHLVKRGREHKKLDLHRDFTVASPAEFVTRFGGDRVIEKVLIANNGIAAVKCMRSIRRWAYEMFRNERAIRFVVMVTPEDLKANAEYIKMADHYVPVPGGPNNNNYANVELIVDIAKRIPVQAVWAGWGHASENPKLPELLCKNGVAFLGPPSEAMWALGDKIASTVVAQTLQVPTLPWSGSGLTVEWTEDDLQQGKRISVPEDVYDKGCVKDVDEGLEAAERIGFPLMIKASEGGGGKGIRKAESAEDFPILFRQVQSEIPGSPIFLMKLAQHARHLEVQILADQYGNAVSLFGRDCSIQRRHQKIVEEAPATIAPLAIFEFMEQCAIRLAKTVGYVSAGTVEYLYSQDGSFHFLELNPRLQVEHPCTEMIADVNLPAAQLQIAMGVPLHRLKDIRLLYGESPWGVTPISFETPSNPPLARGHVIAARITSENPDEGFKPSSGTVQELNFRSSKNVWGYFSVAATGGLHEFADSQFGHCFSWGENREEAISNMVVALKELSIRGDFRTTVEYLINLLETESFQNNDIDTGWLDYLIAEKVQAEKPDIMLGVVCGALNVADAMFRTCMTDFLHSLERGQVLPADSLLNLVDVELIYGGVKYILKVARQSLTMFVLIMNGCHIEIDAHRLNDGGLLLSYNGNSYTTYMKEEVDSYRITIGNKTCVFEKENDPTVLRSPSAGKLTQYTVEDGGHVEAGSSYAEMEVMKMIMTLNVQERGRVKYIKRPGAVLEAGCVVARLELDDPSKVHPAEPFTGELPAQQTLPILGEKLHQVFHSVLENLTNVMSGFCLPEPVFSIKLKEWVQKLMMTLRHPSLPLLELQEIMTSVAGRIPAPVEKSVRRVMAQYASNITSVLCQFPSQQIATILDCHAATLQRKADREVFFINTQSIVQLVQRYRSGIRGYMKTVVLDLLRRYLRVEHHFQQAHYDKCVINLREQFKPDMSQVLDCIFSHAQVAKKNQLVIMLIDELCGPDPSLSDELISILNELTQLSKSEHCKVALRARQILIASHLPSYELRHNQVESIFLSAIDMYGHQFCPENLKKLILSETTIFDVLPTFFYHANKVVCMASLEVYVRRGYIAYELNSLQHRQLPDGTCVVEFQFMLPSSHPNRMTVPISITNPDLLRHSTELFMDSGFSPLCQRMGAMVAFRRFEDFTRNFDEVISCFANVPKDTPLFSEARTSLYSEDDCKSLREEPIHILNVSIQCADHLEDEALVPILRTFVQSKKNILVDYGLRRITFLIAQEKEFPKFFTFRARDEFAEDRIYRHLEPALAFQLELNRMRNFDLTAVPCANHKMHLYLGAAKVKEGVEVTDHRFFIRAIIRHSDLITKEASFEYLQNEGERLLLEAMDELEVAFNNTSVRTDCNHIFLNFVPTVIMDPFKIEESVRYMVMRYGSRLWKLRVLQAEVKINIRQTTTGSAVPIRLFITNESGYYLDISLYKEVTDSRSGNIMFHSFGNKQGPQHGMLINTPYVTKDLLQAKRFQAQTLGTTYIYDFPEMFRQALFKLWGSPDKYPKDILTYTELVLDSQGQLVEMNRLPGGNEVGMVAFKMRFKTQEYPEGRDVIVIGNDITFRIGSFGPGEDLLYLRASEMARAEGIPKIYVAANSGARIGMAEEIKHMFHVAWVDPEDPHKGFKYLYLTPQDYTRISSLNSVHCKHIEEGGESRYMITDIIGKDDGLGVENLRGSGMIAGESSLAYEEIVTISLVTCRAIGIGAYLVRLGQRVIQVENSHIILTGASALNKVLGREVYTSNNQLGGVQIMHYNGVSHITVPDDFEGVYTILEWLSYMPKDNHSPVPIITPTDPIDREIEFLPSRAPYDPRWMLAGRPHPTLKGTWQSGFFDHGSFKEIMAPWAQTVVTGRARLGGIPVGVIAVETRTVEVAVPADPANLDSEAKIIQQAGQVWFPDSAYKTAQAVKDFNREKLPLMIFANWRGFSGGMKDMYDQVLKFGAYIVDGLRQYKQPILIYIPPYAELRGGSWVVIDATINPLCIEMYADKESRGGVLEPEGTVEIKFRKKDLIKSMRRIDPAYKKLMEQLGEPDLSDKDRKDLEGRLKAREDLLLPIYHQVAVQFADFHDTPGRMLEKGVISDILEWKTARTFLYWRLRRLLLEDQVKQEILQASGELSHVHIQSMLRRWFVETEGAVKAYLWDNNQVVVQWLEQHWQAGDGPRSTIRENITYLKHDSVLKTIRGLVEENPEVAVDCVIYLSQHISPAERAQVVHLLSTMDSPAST

On to `O=C1NC2(CCN(C(=O)c3ccc4[nH]cnc4c3)CC2)Oc2ccc(Br)cc21` [Compound 109, 1′-[(1H-benzimidazol-5-yl)carbonyl]-6-bromospiro[2H-1,3-benzoxazin-2,4′-piperidin]-4-(3H)-one], for which the values for the concentration for half-maximal inhibition (IC50) at hACC2 and at hACC1 were 2900 nM and 600 nM, respectively.

For the compound `O=C1NC2(CCN(C(=O)c3ccc4[nH]nnc4c3)CC2)Oc2ccc(Br)cc21` [Compound 110, 1′-[(1H-benzotriazol-5-yl)carbonyl]-6-bromospiro[2H-1,3-benzoxazin-2,4′-piperidin]-4-(3H)-one], the 50% inhibitory concentration (IC50) (usually the concentration needed to halve the response being measured) was 4600 nM on hACC2 and 6700 nM at hACC1.

`COc1cc2c(OC)cccc2cc1C(=O)N1CCC2(CC1)NC(=O)c1cc(Cl)ccc1O2` [Compound 131, 6-Chloro-1′-[(3,5-dimethoxynaphth-2-yl)carbonyl]spiro[2H-1,3-benzoxazin-2,4′-piperidin]-4-(3H)-one]: the half-inhibitory concentration (IC50) came to 450 nM at hACC2 and 1900 nM at hACC1.

As for `COc1cc2c(OC)cccc2cc1C(=O)N1CCC2(CC1)NC(=O)c1cc(NC(C)=O)ccc1O2` [Compound 132, 6-Acetamido-1′-[(3,5-dimethoxynaphth-2-yl)carbonyl]spiro[2H-1,3-benzoxazin-2,4′-piperidin]-4-(3H)-one], the IC50 is 300 nM at hACC2 and 800 nM at hACC1.

For the compound `COc1cc(C(=O)N2CCC3(CC2)NC(=O)c2cc(Br)ccc2O3)nc2c(SC)cccc12` [Compound 133], the half-inhibitory concentration (IC50) was 110 nM on hACC2 and 140 nM at hACC1.

Take `COc1cc(C(=O)N2CCC3(CC2)NC(=O)c2cc(NC(C)=O)ccc2O3)nc2c(SC)cccc12` [Compound 136]: the IC50 on hACC2 is 55 nM; at hACC1, 75 nM.

In the case of `COc1cc(C(=O)N2CCC3(CC2)NC(=O)c2cc(C)ccc2O3)nc2c(OC)cccc12` [Compound 137], the half-inhibitory concentration (IC50) came out at 29 nM at hACC2 and 67 nM at hACC1.

For the compound `COc1cc2c(OC)cccc2cc1C(=O)N1CCC2(CC1)Oc1ccc(Br)cc1C(=O)N2C` [Compound 138, 6-Bromo-1′-[(3,5-dimethoxynaphth-2-yl)carbonyl]-3-methylspiro[2H-1,3-benzoxazin-2,4′-piperidin]-4-(3H)-one], the IC50 on hACC2 worked out at 880 nM; at hACC1, 1200 nM.

On to `COc1cccc2c(C)c(C(=O)N3CCC4(CC3)NC(=O)c3cc(C)ccc3O4)[nH]c12` [Compound 143], for which the IC50 at hACC2 was determined as 190 nM; on hACC1, 130 nM.

In the case of `COc1cc(C(=O)N2CCC3(CC2)NC(=O)c2cc(C)ccc2O3)nc2c(SC)cccc12` [Compound 148], the IC50 at hACC2 was found to be 66 nM; on hACC1, 88 nM.

Turning to `CCOc1ccc2c(c1)C(=O)NC1(CCN(C(=O)c3cc(OC)c4cccc(SC)c4n3)CC1)O2` [Compound 149], the IC50 was determined as 25 nM on hACC2 and 35 nM on hACC1.

Take `COc1cc(C(=O)N2CCC3(CC2)NC(=O)c2cc(C)c(C)cc2O3)nc2c(OC)cccc12` [Compound 153]: the IC50 amounted to 16 nM at hACC2 and 35 nM at hACC1.

Regarding `COc1cc(C(=O)N2CCC3(CC2)NC(=O)c2cc(C)c(C)cc2O3)nc2c(SC)cccc12` [Compound 154], the half-inhibitory concentration (IC50) at hACC2 was found to be 27 nM; at hACC1, 30 nM.

Consider `COc1cc(C(=O)N2CCC3(CC2)NC(=O)c2cc(C)c(C)cc2O3)cc2c(OC)cccc12` [Compound 155, 1′-[(4,8-Dimethoxynaphth-2-yl)carbonyl]-6,7-dimethylspiro[2H-1,3-benzoxazin-2,4′-piperidin]-4-(3H)-one], for which the IC50 came to 4 nM on hACC2 and 5 nM on hACC1.

For the compound `COc1ccc2c(c1)C(=O)NC1(CCN(C(=O)c3cc(OC)c4cccc(SC)c4n3)CC1)O2` [Compound 157], the IC50 at hACC2 amounted to 48 nM; at hACC1 it was 33 nM.

`COc1cc(C(=O)N2CCC3(CC2)NC(=O)c2cc4ccccc4cc2O3)nc2c(OC)cccc12` [Compound 159]: the values for the concentration for half-maximal inhibition (IC50) on hACC2 and on hACC1 were 5 nM and 4 nM, respectively.

Turning to `COc1cc(C(=O)N2CCC3(CC2)NC(=O)c2cc4ccccc4cc2O3)cc2c(OC)cccc12` [Compound 160], the figures for the 50% inhibitory concentration (IC50) at hACC2 and on hACC1 were 3 nM and 4 nM, respectively.

Regarding `COc1ccc2cc3c(cc2c1)C(=O)NC1(CCN(C(=O)c2[nH]c4c(OC)cccc4c2C)CC1)O3` [Compound 166, 7-Methoxy-1′-[[7-methoxy-3-methyl-1H-indol-2-yl)carbonyl]spiro[2H-naphtho[2,3-e]-1,3-oxazin-2,4′-piperidin]-4-(3H)-one], the half-inhibitory concentration (IC50) on hACC2 is 31 nM; on hACC1, 36 nM.

For the compound `COc1cc(C(=O)N2CCC3(CC2)NC(=O)c2cc(Cl)ccc2O3)cc2c(OC)cccc12` [Compound 171], the figures for the IC50 on hACC2 and on hACC1 were 14 nM and 28 nM, respectively.

For `COc1ccc(OC)c2c1cc(C(=O)N1CCC3(CC1)NC(=O)c1cc(OC(C)C)ccc1O3)n2C` [Compound 185], the half-inhibitory concentration (IC50) on hACC2 worked out at 83 nM; on hACC1, 90 nM.

`COc1ccc2c(c1)C(=O)NC1(CCN(C(=O)c3cc(OC)c4cccc(OC)c4c3)CC1)N2` [Compound 187]: the IC50 at hACC1 was 87 nM. Also, the activity at 3.3 µM worked out at 71% in experiment [1], 102% in experiment [2], 69.9% in experiment [3] and 80.8% in experiment [4]. The activity at 10 µM in experiment [1] was 56.1%; in experiment [2] it was 64.9%; in experiment [3], 52.2%; in experiment [4], 45.6%.

With `COc1ccc2c(c1)C(=O)NC1(CCN(C(=O)c3cc(OC)c4cccc(OC)c4n3)CC1)N2` [Compound 188], on hACC1, the IC50 was 260 nM. In addition, the activity at 3.3 µM was determined as 90.3% in experiment [1], 94.8% in experiment [2], 62.6% in experiment [3] and 70.3% in experiment [4]. Moreover, the activity at 10 µM worked out at 68.2% in experiment [1], 51.4% in experiment [2], 19% in experiment [3] and 28.7% in experiment [4].

For the compound `COc1cc(C(=O)N2CCC3(CC2)NC(=O)c2cc(OC(C)C)ccc2O3)cc2[nH]ncc12` [Compound 230], the values for the IC50 at hACC2 and at hACC1 were 85 nM and 110 nM, respectively.

As for `COc1cc(C(=O)N2CCC3(CC2)NC(=O)c2cc(C(C)C)ccc2O3)cc2[nH]ncc12` [Compound 231], the IC50 is 33 nM on hACC2 and 47 nM on hACC1.

Source of the values: patent US8110570B2, “Modulators of acetyl-coenzyme A carboxylase and methods of use thereof” (Cropsolution, Inc., priority 2008, dated 2012).
